{"source": "patent US20230355597A1", "about": "“COMPOUNDS, COMPOSITIONS, AND METHODS FOR THE TREATMENT AND PREVENTION OF AVIAN PATHOGENIC E. COLI (APEC)” (OHIO STATE INNOVATION FOUNDATION, priority 2018, published 2023)", "system": "APEC O78", "assay": "Loss of 260/280 nm absorbing materials assay", "type": "cell-based, avian pathogenic Escherichia coli (APEC)", "settings": "2X MBC, 1 h, *P<0.05 vs DMSO"}
{"smiles": "O=C(O)CN(CCN(CC(=O)O)CC(=O)O)CC(=O)O", "note": "[EDTA, reference compound]", "values": [{"measurement": "Absorbance 260", "setting": "260 nm absorbing material in supernatant", "result": "4.00*"}, {"measurement": "Absorbance 280", "setting": "280 nm absorbing material in supernatant", "result": 2.60}]}
